Here are results for five compounds from US6831092B1 (priority 1999, dated 2004).

Assay [1] has as its system fungi of tomato late blight. The assay is classed as in vivo, fungi of tomato late blight on tomato (cultivar: Ponderosa).
Assay [2] relates to fungi of cucumber downy mildew. Put plainly: Test on preventive effect against cucumber downy mildew. It counts as in vivo, fungi of cucumber downy mildew on cucumber (cultivar: Suyo). An excerpt: Test on Preventive Effect Against Cucumber Downy Mildew
Cucumber (cultivar: Suyo) was cultivated in a polyethylene pot having a diameter of 7.5 cm, and when the cucumber reached a two-leaf stage, two seedlings of the cucumber were sprayed with a drug solution having predetermined concentrations of sample compounds in an amount of 1, 000 l/ha by a spray gun. On the next day after the treatment, the cucumber was sprayed and inoculated with a zoosporangia suspension of fungi of cucumber downy mildew, and the cucumber was kept in a moist chamber at 20° C. for 18 hours. Then, it was kept in a constant temperature chamber of 20° C. for from 6 to 7 days, and the average area of lesions on the first leaves of the two seedlings was examined to find the incidence according to the following formula. Here, the average area of lesions in the non-treated plot was obtained in the same manner as the treated plot, except that the cucumber was sprayed with water instead of the drug solution by a spray gun. […]
a: Average area of lesions in the treated plot b: Average area of lesions in the non-treated plot
Further, the theoretical value can be calculated from the following Colby's formula:
Theoretical value=(X×Y)/100
X: Incidence (%) in the case of treatment with the compound No. 1 alone Y: Incidence (%) in the case of treatment with the compound a, b, c or d alone When the experimental values are lower than the theoretical values by Colby's formula, the pesticidal composition of the present invention has a synergistic effect of controlling pests. The theoretical values by Colby's formula in such cases are shown in parenthesis ( ) in Tables 1 to 4.

Molecules are shown by their SMILES. Read-outs that look alike come from different tables or passages of the source.

`Cc1ccc(-c2c(Cl)nc(C#N)n2S(=O)(=O)N(C)C)cc1` [Compd. No. 1, 4-chloro-2-cyano-1-dimethylsulfamoyl-5-(4-methylphenyl)imidazole]: the “Incidence of tomato late blight” value in assay [1] (Compd. No. 1 0.062 ppm alone (Compd. a 0 ppm), Table 5) came out at 91.3%; in assay [1] (Compd. No. 1 0.062 ppm alone (Compd. b 0 ppm), Table 6), 90.6%; in assay [1] (Compd. No. 1 0.062 ppm alone (Compd. c 0 ppm), Table 7), 65.6%; in assay [1] (Compd. No. 1 0.125 ppm alone (Compd. c 0 ppm), Table 7), 37.5%; in assay [1] (Compd. No. 1 0.125 ppm alone (Compd. d 0 ppm), Table 8) it was 100%; in assay [1] (Compd. No. 1 0.25 ppm alone (Compd. a 0 ppm), Table 5), 25.6%. For the same compound, the “Incidence of tomato late blight” value in assay [1] (Compd. No. 1 0.25 ppm alone (Compd. b 0 ppm), Table 6) stood at 78.1%; in assay [1] (Compd. No. 1 0.25 ppm alone (Compd. c 0 ppm), Table 7), 21.9%; in assay [1] (Compd. No. 1 0.25 ppm alone (Compd. d 0 ppm), Table 8), 100%; in assay [1] (Compd. No. 1 0.50 ppm alone (Compd. b 0 ppm), Table 6), 50.0%; in assay [1] (Compd. No. 1 0.50 ppm alone (Compd. c 0 ppm), Table 7), 6.3%; in assay [1] (Compd. No. 1 0.5 ppm alone (Compd. d 0 ppm), Table 8) it was 83.4%. Also, the “Incidence of tomato late blight” value in assay [1] (Compd. No. 1 1.125 ppm alone (Compd. a 0 ppm), Table 5) is reported as 69.2%; in assay [1] (Compd. No. 1 1.125 ppm alone (Compd. b 0 ppm), Table 6) it was 87.5%. For the same compound, the “Incidence of cucumber downy mildew” value in assay [2] (Compd. No. 1 0.06 ppm alone (Compd. d 0 ppm), Table 4) is reported as 85%; in assay [2] (Compd. No. 1 0.062 ppm alone (Compd. a 0 ppm), Table 1), 87.6%; in assay [2] (Compd. No. 1 0.062 ppm alone (Compd. b 0 ppm), Table 2), 84.6%; in assay [2] (Compd. No. 1 0.062 ppm alone (Compd. c 0 ppm), Table 3) it was 25.4%; in assay [2] (Compd. No. 1 0.125 ppm alone (Compd. a 0 ppm), Table 1), 20.5%; in assay [2] (Compd. No. 1 0.125 ppm alone (Compd. b 0 ppm), Table 2), 56.7%. Besides, the “Incidence of cucumber downy mildew” value is recorded as 2.5% in assay [2] (Compd. No. 1 0.125 ppm alone (Compd. c 0 ppm), Table 3); 5.1% in assay [2] (Compd. No. 1 0.25 ppm alone (Compd. a 0 ppm), Table 1); 2.5% in assay [2] (Compd. No. 1 0.25 ppm alone (Compd. c 0 ppm), Table 3); 5.0% in assay [2] (Compd. No. 1 0.25 ppm alone (Compd. d 0 ppm), Table 4); 2.5% in assay [2] (Compd. No. 1 0.5 ppm alone (Compd. d 0 ppm), Table 4); 0% in assay [2] (Compd. No. 1 1 ppm alone (Compd. d 0 ppm), Table 4).

As for `CSC1=N[C@@](C)(c2ccccc2)C(=O)N1Nc1ccccc1` [Compd. a, (S)-5-methyl-2-methylthio-5-phenyl-3-phenylamino-3.5-dihydroimidazole-4-one], the “Incidence of tomato late blight” value amounted to 100% in assay [1] (Compd. a 0.062 ppm alone (Compd. No. 1 0 ppm), Table 5); 97.2% in assay [1] (Compd. a 0.125 ppm alone (Compd. No. 1 0 ppm), Table 5); 94.4% in assay [1] (Compd. a 0.25 ppm alone (Compd. No. 1 0 ppm), Table 5); 66.1% in assay [1] (Compd. a 0.5 ppm alone (Compd. No. 1 0 ppm), Table 5); 53.5% in assay [1] (Compd. a 1 ppm alone (Compd. No. 1 0 ppm), Table 5). Also, the “Incidence of cucumber downy mildew” value amounted to 82.1% in assay [2] (Compd. a 0.25 ppm alone (Compd. No. 1 0 ppm), Table 1); 66.7% in assay [2] (Compd. a 0.5 ppm alone (Compd. No. 1 0 ppm), Table 1); 12.8% in assay [2] (Compd. a 1 ppm alone (Compd. No. 1 0 ppm), Table 1).

Regarding `Cc1ccc(C(C)NC(=O)[C@@H](NC(=O)OC(C)C)C(C)C)cc1` (stereo partly drawn) [Compd. b, isopropyl 2-methyl-1-((1-p-tolylethyl)carbamoyl)-(S)-propylcarbamate], the “Incidence of tomato late blight” value in assay [1] (Compd. b 1 ppm alone (Compd. No. 1 0 ppm), Table 6) came to 100%; in assay [1] (Compd. b 4 ppm alone (Compd. No. 1 0 ppm), Table 6), 71.9%; in assay [1] (Compd. b 8 ppm alone (Compd. No. 1 0 ppm), Table 6), 46.9%. For the same compound, the “Incidence of cucumber downy mildew” value is listed as 87.6% in assay [2] (Compd. b 2 ppm alone (Compd. No. 1 0 ppm), Table 2); 67.0% in assay [2] (Compd. b 4 ppm alone (Compd. No. 1 0 ppm), Table 2); 46.4% in assay [2] (Compd. b 8 ppm alone (Compd. No. 1 0 ppm), Table 2); 15.5% in assay [2] (Compd. b 16 ppm alone (Compd. No. 1 0 ppm), Table 2).

`CCC(C)(NC(=O)c1cc(Cl)c(C)c(Cl)c1)C(=O)CCl` (centres unmarked) [Compd. c, 3.5-dichloro-N-(3-chloro-1-ethyl-1-methyl-2-oxopropyl)-4-methylbenzamide]: the “Incidence of tomato late blight” value in assay [1] (Compd. c 1 ppm alone (Compd. No. 1 0 ppm), Table 7) was 62.5%; in assay [1] (Compd. c 4 ppm alone (Compd. No. 1 0 ppm), Table 7), 62.5%; in assay [1] (Compd. c 8 ppm alone (Compd. No. 1 0 ppm), Table 7), 31.3%. Besides, the “Incidence of cucumber downy mildew” value came out at 95.8% in assay [2] (Compd. c 0.5 ppm alone (Compd. No. 1 0 ppm), Table 3); 71.2% in assay [2] (Compd. c 1 ppm alone (Compd. No. 1 0 ppm), Table 3); 61.0% in assay [2] (Compd. c 2 ppm alone (Compd. No. 1 0 ppm), Table 3).

As for `CCNc1nc(CC)c(C(=O)NC(C#N)c2cccs2)s1` (centres unmarked) [Compd. d, N-(a-cyano-2-thienyl)-4-ethyl-2-(ethylamino)-5-thiazole carboxyamide], the “Incidence of tomato late blight” value in assay [1] (Compd. d 4 ppm alone (Compd. No. 1 0 ppm), Table 8) worked out at 75%; in assay [1] (Compd. d 8 ppm alone (Compd. No. 1 0 ppm), Table 8) it was 29.2%; in assay [1] (Compd. d 16 ppm alone (Compd. No. 1 0 ppm), Table 8), 16.5%. Moreover, the “Incidence of cucumber downy mildew” value in assay [2] (Compd. d 1 ppm alone (Compd. No. 1 0 ppm), Table 4) came to 100%; in assay [2] (Compd. d 8 ppm alone (Compd. No. 1 0 ppm), Table 4), 15%; in assay [2] (Compd. d 16 ppm alone (Compd. No. 1 0 ppm), Table 4) it was 20%.
